Measurements as given in patent US20140255358A1, “GENERATION OF IMMUNOSUPPRESSIVE MYELOID CELLS USING PGE2” (priority 2011, published 2014).

What was measured:
Format in all cases: cell-based, human
[1] = test system: suppressive cells; test: Yield of ex vivo generated cells (FIG. 5); conditions: N=12 donors, mean
Description: Yield of PGE2-induced myeloid suppressive cells was similar as the yield of iDCs and TNF-a matured DCs (FIG. 5). FIG. 5. PGE2 allows for ex vivo generation of high numbers of suppressive cells. […] Histograms present data of individual experiments (N=12) with different donors as mean±s.d.

[2] = test system: myeloid suppressive cells; test: Induction of immunosuppressive factor mRNA by PGE2 and EP agonists (FIG. 3)
Description: FIG. 3. PGE2, EP4 and EP2 agonists mediate enhanced development of MDSCs. […] All data were confirmed in 3-7 independent experiments. Bar graphs present data of a single representative experiment with different donors as mean±s.d.

[3] = test system: differentiating monocytes; test: Six-day GM-CSF and IL-4-supplemented cultures of differentiating monocytes: phenotype, suppressive factors, CD8+ T cell suppression (FIG. 2)
Description: PGE2 acts on four subtypes of G protein-coupled receptors designated EP1, EP2, EP3, and EP4, among which EP2 and EP4 signaling is coupled to rise in cAMP concentration.
FIG. 2. PGE2 redirects DC differentiation and induces CD14^+CD33^+CD34^+ cells with the phenotype and function similar to monocytic MDSCs. (A) Phenotype of PGE2-induced CD1a^−CD14^+CD80^−CD83^− suppressive cells expressing inhibitory molecules ILT2, ILT3, ILT4, PDL-1, but not PDL-2. PGE2-induced suppressive cells express E-prostanoid receptors (labeled with α-EP1-, α-EP3- sec.Alexa488 and α-EP2-, α-EP4-PE). […] (bottom) Expression of immunosuppressive factors IL10, IDO1, IL4Rα and COX2 in PGE2-induced suppressive cells. (C) Immunosuppressive effects of PGE2-induced suppressive cells on allogeneic naïve CFSE-labeled CD8^+ T cells primed by CD3/CD28 and stained for granzyme B. Left panel: Percentages indicate the fraction of proliferating granzyme B^+ (marker of CTL status) CD8^+ cells. Right panel: Percentage of proliferating CD8^+ T cells in the presence of PGE2-induced suppressive cells (PGE2-d0) and PGE2-conditioned DCs (PGE2-d6). All data (panels A-C) were confirmed in at least 3 independent experiments. Bar graphs present data of a single representative experiment with different donors as mean±s.d. P<0.05 marked *; P<0.01 marked **; P<0.001 marked ***.

[4] = test system: PGE2-induced myeloid suppressive cells; test: Dose-dependent induction of immunosuppressive factors with or without IL-4 (FIG. 4); conditions: presence or absence of IL-4
Description: FIG. 4 Minimal requirement for high doses of PGE2 in the functional induction of myeloid suppressive cells, regardless of the presence or absence of IL-4. (A) Dose-dependent expression of immunosuppressive factors IL10, IDO1, IL4Rα and COX2 in PGE2-induced suppressive cells, generated in the presence or absence of IL-4. Histograms present data of a single representative experiment with different donors as mean±s.d.

[5] = test system: monocytes isolated from healthy blood donors; test: Induction of COX2 and suppressive factors in short-term cultured monocytes (FIG. 1)
Protocol: FIG. 1. The induction of endogenous COX2 and MDSC-associated suppressive factors in monocytes by PGE2. (A) Expression of COX2 mRNA (A, left) and protein (A, right) levels in monocytes isolated from healthy blood donors is induced by synthetic PGE2. Regulation of COX1 and COX2 expression by synthetic PGE2 was analyzed after 6-10 h. […] All data (panels A-B) were confirmed in at least 3 independent experiments. Bar graphs present data of a single representative experiment with different donors as mean±s.d. P<0.05 marked *; P<0.01 marked **; P<0.001 marked ***.

TNF-α
yield of cells [1]: 36.9%

O=C1CC[C@H](/C=C/[C@@H](O)Cc2ccccc2)N1CCCCCCc1nn[nH]n1 [CAY10598]
induction of immunosuppressive factors arginase, IDO1, NOS2, IL-4Rα, IL10 and COX2 mRNA [2]: induced high levels

CCCCC[C@H](O)/C=C/[C@H]1[C@H](O)CC(=O)[C@@H]1C/C=C\CCCC(=O)O [PGE2, (5Z,11 alpha,13E,15S)-11,15-dihydroxy-9-oxoprosta-5,13-dien-1-oic acid]
induction of immunosuppressive factors arginase, IDO1, NOS2, IL-4Rα, IL10 and COX2 mRNA [2]: Induction of immunosuppressive factors | yield of cells [1]: 48.6% | induction of CD1a+CD14- DCs ([3]; added to GM-CSF and IL-4-supplemented cultures of differentiating monocytes): abolished the induction of CD1a^+CD14^− DCs | CTL-suppressive function ([3]; added to GM-CSF/IL-4-supplemented monocyte cultures): sufficient to induce the CTL-suppressive function | IL-10 production ([3]; after 6 days of culture): 261 pg/mL | induction of IL4Rα [4]: less pronounced, but also significant | production of IL-10, ARG-1, NOS2 and IDO1 [4]: dose-dependently induced | expression of additional immunosuppressive factors IDO1, NOS2, IL-10, IL4Rα [5]: induced the expression | expression of endogenous COX2 ([5]; analyzed after 6-10 h): start expressing endogenous COX2

CCCC1([C@H](O)C/C=C/[C@H]2[C@H](O)CC(=O)[C@@H]2CCCCCCC(=O)OC)CCC1 [Butaprost]
induction of immunosuppressive factors arginase, IDO1, NOS2, IL-4Rα, IL10 and COX2 mRNA [2]: induced high levels
